{"source": "the NIST ThermoML archive (doi:10.1016/j.jct.2017.06.001)", "key": {"[1]": {"conditions": "100 kPa, Liquid; for mass density: Vibrating tube method; for speed of sound: Frequency=5 MHz, Pulse-echo method"}, "[2]": {"assay": "xn = mol fraction of the nth substance listed", "conditions": "100 kPa, Liquid, x2 = 0; for mass density: Vibrating tube method; for speed of sound: Frequency=5 MHz, Pulse-echo method"}}, "note": "Numbers after ± are expanded uncertainties."}
{"molecule": "OCCCCCO", "note": "[1,5-pentanediol]", "values": [{"measurement": "mass density", "setting": "[1]; 278.15 K", "result": "998 ± 2.1", "unit": "kg/m3"}, {"measurement": "mass density", "setting": "[1]; 283.15 K", "result": "995 ± 2.1", "unit": "kg/m3"}, {"measurement": "speed of sound", "setting": "[1]; 288.15 K", "result": "1616.4 ± 2.3", "unit": "m/s"}, {"measurement": "mass density", "setting": "[1]; 288.15 K", "result": "992.2 ± 2.1", "unit": "kg/m3"}, {"measurement": "speed of sound", "setting": "[1]; 293.15 K", "result": "1605 ± 2.3", "unit": "m/s"}, {"measurement": "mass density", "setting": "[1]; 293.15 K", "result": "989.3 ± 2.1", "unit": "kg/m3"}, {"measurement": "speed of sound", "setting": "[1]; 298.15 K", "result": "1593.8 ± 2.3", "unit": "m/s"}, {"measurement": "mass density", "setting": "[1]; 298.15 K", "result": "986.5 ± 2.1", "unit": "kg/m3"}, {"measurement": "speed of sound", "setting": "[1]; 303.15 K", "result": "1582.5 ± 2.3", "unit": "m/s"}, {"measurement": "mass density", "setting": "[1]; 303.15 K", "result": "983.6 ± 2.1", "unit": "kg/m3"}, {"measurement": "speed of sound", "setting": "[1]; 308.15 K", "result": "1571.3 ± 2.3", "unit": "m/s"}, {"measurement": "mass density", "setting": "[1]; 308.15 K", "result": "980.7 ± 2.1", "unit": "kg/m3"}, {"measurement": "speed of sound", "setting": "[1]; 313.15 K", "result": "1560.2 ± 2.3", "unit": "m/s"}, {"measurement": "mass density", "setting": "[1]; 313.15 K", "result": "977.8 ± 2.1", "unit": "kg/m3"}, {"measurement": "speed of sound", "setting": "[1]; 318.15 K", "result": "1549 ± 2.3", "unit": "m/s"}, {"measurement": "mass density", "setting": "[1]; 318.15 K", "result": "974.9 ± 2.1", "unit": "kg/m3"}, {"measurement": "mass density", "setting": "[1]; 323.15 K", "result": "971.9 ± 2.1", "unit": "kg/m3"}, {"measurement": "mass density", "setting": "[1]; 328.15 K", "result": "969 ± 2.1", "unit": "kg/m3"}, {"measurement": "mass density", "setting": "[1]; 333.15 K", "result": "965.9 ± 2.1", "unit": "kg/m3"}]}
{"molecule": "O", "note": "[water] + OCCCCCO", "values": [{"measurement": "mass density", "setting": "[2]; 278.15 K", "result": "999.97 ± 0.16", "unit": "kg/m3"}, {"measurement": "mass density", "setting": "[2]; 283.15 K", "result": "999.7 ± 0.16", "unit": "kg/m3"}, {"measurement": "speed of sound", "setting": "[2]; 308.15 K", "result": "1519.2 ± 1.1", "unit": "m/s"}, {"measurement": "speed of sound", "setting": "[2]; 313.15 K", "result": "1528.8 ± 1.2", "unit": "m/s"}, {"measurement": "speed of sound", "setting": "[2]; 318.15 K", "result": "1536.7 ± 1.2", "unit": "m/s"}, {"measurement": "mass density", "setting": "[2]; 323.15 K", "result": "988.03 ± 0.16", "unit": "kg/m3"}, {"measurement": "mass density", "setting": "[2]; 328.15 K", "result": "985.68 ± 0.16", "unit": "kg/m3"}, {"measurement": "mass density", "setting": "[2]; 333.15 K", "result": "983.19 ± 0.16", "unit": "kg/m3"}]}
